“Also recorded” adds a separate entry of the source. Marks after values point to notes of the source that are not given here.
How the values were obtained:
Y169F IPMS = Y169F IPMS (Mycobacterium tuberculosis, UniProt P9WQB3, Y169F); assay type: biochemical; conditions: for Km: read-out: K1 (Km)
E218A IPMS [1] = target: T1, E218A IPMS (Mycobacterium tuberculosis, UniProt P9WQB3, E218A); assay type: biochemical
H379A IPMS [2] = target: T2, H379A IPMS (Mycobacterium tuberculosis, UniProt P9WQB3, H379A); assay type: biochemical
Y410F IPMS [3] = target: T3, Y410F IPMS (Mycobacterium tuberculosis, UniProt P9WQB3, Y410F); assay type: biochemical; conditions: for Km: read-out: K1 (Km)
Y410F IPMS [4] = target: T3, Y410F IPMS; assay type: binding
H379A IPMS [5] = target: T2, H379A IPMS; assay type: biochemical; remark: listed apart in the source
E218A IPMS [6] = target: T1, E218A IPMS; assay type: binding
Y169F MtIPMS = Y169F MtIPMS (Mycobacterium tuberculosis, UniProt P9WQB3, Y169F); assay type: biochemical
Y410F IPMS [7] = target: T3, Y410F IPMS; assay type: biochemical
E218A IPMS [8] = target: T1, E218A IPMS; assay type: biochemical; remark: listed apart in the source

Question: What does the source list for `CC(=O)SCCNC(=O)CCNC(=O)[C@H](O)C(C)(C)COP(=O)(O)OP(=O)(O)OC[C@H]1O[C@@H](n2cnc3c(N)ncnc32)[C@H](O)[C@@H]1OP(=O)(O)O` [Acetyl-CoA, acetyl-coenzyme A]?
Answer: kcat1 (kcat) (Y169F IPMS): 5.67 ± 0.217 s⁻¹; Km (Y169F IPMS): 40 ± 6 µM; K1 (E218A IPMS [1]): 9.5 ± 1.1 µM; K2 (E218A IPMS [1]): 697 ± 615 µM; kcat1 (E218A IPMS [1]): 0.0583 ± 0.0033 s⁻¹; kcat2 (E218A IPMS [1]): 0.0933 ± 0.0467 s⁻¹; kcat1 (kcat) (H379A IPMS [2]): 2.55 ± 0.033 s⁻¹; Km (H379A IPMS [2]; read-out: K1 (Km)): 23 ± 1.5 µM; kcat1 (kcat) (Y410F IPMS [3]): 0.0933 ± 0.0033 s⁻¹; Km (Y410F IPMS [3]): 1.1 ± 0.2 µM

Question: With `CC(C)C[C@H](N)C(=O)O` [L-leucine] as the compound, how does the “N (stoichiometry for binding)” value (Y410F IPMS [4]) read?
Answer: The value was 0.91 ± 0.01.

Question: And the ΔH (Y410F IPMS [4])?
Answer: Its ΔH is 2.598 ± 0.048 kcal/mol.

Question: What about the ΔS (Y410F IPMS [4]) of the same compound?
Answer: The ΔS was 30.1 cal/mol/K.

Question: What about the “activity retained at saturating L-leucine” value (H379A IPMS [5]) of the same compound?
Answer: The value was 24%.

Question: And the “β (fractional activity at saturating inhibitor)” value (H379A IPMS [5])?
Answer: The value was 0.24.

Question: And the “N (stoichiometry for binding)” value (E218A IPMS [6])?
Answer: Its value is 0.97 ± 0.01.

Question: And the ΔH (E218A IPMS [6])?
Answer: The ΔH was 1.486 ± 0.031 kcal/mol.

Question: What about the ΔS (E218A IPMS [6]) of the same compound?
Answer: The ΔS was 28.5 cal/mol/K.

Question: What about the “inhibition at saturating L-leucine” value (Y169F MtIPMS) of the same compound?
Answer: Its value is “fully inhibited; also recorded: completely inhibited”.

Question: And the “sensitivity to L-leucine inhibition” value (Y410F IPMS [7])?
Answer: The value was “insensitive”.

Question: And the “activity retained, vss data” value (E218A IPMS [8])?
Answer: Its value is 16%.

Question: And the “β, limiting value for vi” value (E218A IPMS [8])?
Answer: Its value is 0.61/0.16 ^c.

Question: How did the “kcat1 (kcat)” value (Y169F IPMS) turn out when `CC(C)C(=O)C(=O)O` [α-KIV, α-ketoisovalerate] was run?
Answer: The value was 4.75 ± 0.267 s⁻¹.

Question: And the Km (Y169F IPMS)?
Answer: Its Km is 13.4 ± 2.6 µM.

Question: And the K1 (E218A IPMS [1])?
Answer: Its K1 is 1.6 ± 0.2 µM.

Question: What about the K2 (E218A IPMS [1]) of the same compound?
Answer: The K2 was 39 ± 11 µM.

Question: And the kcat1 (E218A IPMS [1])?
Answer: Its kcat1 is 0.0367 ± 0.0017 s⁻¹.

Question: What about the kcat2 (E218A IPMS [1]) of the same compound?
Answer: The kcat2 was 0.0217 ± 0.0017 s⁻¹.

Question: What about the K1 (H379A IPMS [2]) of the same compound?
Answer: Its K1 is 1.6 ± 1.1 µM.

Question: And the K2 (H379A IPMS [2])?
Answer: Its K2 is 19 ± 6 µM.

Question: And the kcat1 (H379A IPMS [2])?
Answer: Its kcat1 is 0.7 ± 0.3 s⁻¹.

Question: What about the kcat2 (H379A IPMS [2]) of the same compound?
Answer: Its kcat2 is 1.48 ± 0.283 s⁻¹.

Question: And the “kcat1 (kcat)” value (Y410F IPMS [3])?
Answer: The value was 0.075 ± 0.0033 s⁻¹.

Question: What about the Km (Y410F IPMS [3]) of the same compound?
Answer: Its Km is 0.5 ± 0.1 µM.
